From patent US20230151342A1, “ZINC FINGER DEGRADATION DOMAINS” (THE BROAD INSTITUTE, INC, priority 2020, published 2023)
Where no end group is shown, it is not given here.

Key:
K562-CD19 cells = assay: Jurkat CAR functional assay: CD69 expression after co-culture with K562-CD19 cells; type: cell-based
From the text: FIG. 12A-12D—ON-switch split CARs only function in the presence of lenalidomide. (FIG. 12A) Schematic of split CAR constructs. Each split CAR is composed of the indicated antigen-binding part A and the ITAM-containing part B. The lenalidomide-induced dimerization module is encoded by zinc fingers from IKZF3 or the engineered 913 zinc finger and a fragment of CRBN (CRBNΔ3). The intracellular domains of each split CAR part A is protected from CRL4^CRBN ubiquitination by K>R “K0” substitutions. The control second generation CAR FMC63-CD28-CD3z was also used. sCAR, split CAR. […] (FIG. 12C) Primary T cells were infected with lentiviruses encoding parts A and B of split CAR 913. Untransduced cells and cells expressing components A only, B only, and both A+B were purified by FACS. Cytotoxic activity of each sorted cell population was measured after overnight co-culture with NALM6 target cells and lenalidomide or vehicle control at the indicated effector:target ratios. The maximum plasma concentration for once daily 25 mg lenalidomide in multiple myeloma patients is indicated. (FIG. 12D) Scatterplots showing the production of cytokines after co-culture (1:1 CAR T:NALM6 ratio) in the presence of 1000 nM lenalidomide versus vehicle control. Experiments were performed in triplicate and error bars indicate standard deviation.
FIG. 24 Validation of lenalidomide-OFF-switch control of CAR T cell activation, as assessed by expression of the early activation marker CD69, in Jurkat T cells expressing various super-degron tagged chimeric antigen receptors. Regulation of CAR T cell activation with the indicated super-degrons, in comparison to the previously described degron d913. […]
Thalidomide analogs control degradable CAR T cell activation and effector functions in vitro and in vivo. […] Then cytokine production was analyzed in response to antigen stimulation.

[1] = test system: JeKo-1 mantle cell lymphoma cells; assay: In vivo tumor control model, mantle cell lymphoma xenograft; conditions: NSG mice engrafted with JeKo-1 cells; no drug
Description: (§1) FIG. 14A-14I—OFF-switch degradable CARs can be transiently depleted with pomalidomide and enforce tumor control in vivo. (FIG. 14A) Schematic of luciferase-tagged CAR constructs. […] (FIG. 14C) Summary of BLI 24 hours before, 6 hours after, and 24 hours after pomalidomide. Comparing the d91.3 and d91.3* CARs across each timepoint using two-tailed t-tests yielded p-values of 0.35, 0.003, and 0.14, respectively. (FIG. 14D) BLI representing CAR abundance over time. (FIG. 14E) Experimental design for in vivo tumor control model: NSG mice were injected intravenously with 1e6 GFP+/luciferase+ JeKo-1 tumor cells. At day 0, mice were randomly assigned on the basis of tumor burden to receive 1e6 control T cells (UTD), 19BBz, or 19BBz-d91.3. (FIG. 14F) Average luminescence of whole mice in the 3 groups over time. […] The percentage of JeKo-1 cells (FIG. 14H) and human T cell (FIG. 14I) among mononuclear cells in the bone marrow or spleen at day 35.
Subtle sequence changes to chimeric antigen receptors have been associated with intended and unintended consequences for CAR T cell efficacy and toxicity in clinical trials as well as pre-clinical models (23, 33, 34). Therefore, we determined whether addition of the zinc finger super-degron tag impacts CAR T cell activity in a mantle cell lymphoma xenograft model. We engrafted NSG mice with CD19+ luciferase+ JeKo-1 mantle cell lymphoma cells. […]

NALM6 target cells [2] = assay: Cellular cytotoxicity assay of primary human CAR-T cells; type: cell-based
From the text: (§2) To evaluate whether effector functions of primary T cells could be gated by lenalidomide, primary sCAR 913 T cells were generated. As the two split CAR components are delivered by separate lentivectors, this gave the ability to use FACS to purify cells expressing neither, one, or both components.
(§3) Thalidomide analogs control degradable CAR T cell activation and effector functions in vitro and in vivo. To test whether degradable CAR T cell activation could be controlled with lenalidomide, 19BBz, 19BBz-dIKZF3, 19BBz-d91.3, and 19BBz-d91.3* Jurkat CAR T cell lines were co-cultured with K562 cells engineered to express the target antigen CD19 (K562-CD19) and 11 lenalidomide concentrations or vehicle control. […] To evaluate whether effector functions of degradable CAR T cells could be controlled with lenalidomide, primary human CAR T cells were generated and cytotoxicity assays performed comparing the conventional 19BBz CAR to the degradable 19BBz-d91.3 CAR in vitro. […] Then cytokine production was analyzed in response to antigen stimulation.
(§4) Primary human CAR-T effector cells were co-cultured with NALM6 target cells engineered to express click beetle green luciferase at the indicated ratios for 16 hours. Luciferase activity was measured with a Synergy Neo2 luminescence microplate reader (Biotek). Cell culture supernatant from these experiments was analyzed for soluble cytokines (Luminex).

NALM6 target cells [3] = assay: Cytokine production in CAR T:NALM6 co-culture supernatant (Luminex); type: cell-based
From the text: as §2, §3, §4

[4] = test system: CAR protein abundance in CAR-Jurkat cells; assay: Jurkat CAR protein degradation (flow cytometry anti-Myc tag, western blot)
Description: CAR-Jurkat cells were treated with lenalidomide or vehicle control and then (FIG. 13B) analyzed by western blot for the specified targets or (FIG. 13C) analyzed by flow cytometry to quantify the CAR protein abundance normalized to vehicle control (anti-Myc tag). (FIG. 13D) CAR-Jurkat cells were co-cultured with K562-CD19 cells and lenalidomide or vehicle control and then analyzed by flow cytometry for the percentage of CD69+ cells. (FIG. 13E) The concentration of IL2 in supernatants from FIG. 13D was measured by ELISA. […] All experiments were performed in triplicate. Error bars indicate standard deviation.
Next, the kinetics of CAR depletion was examined after the addition of lenalidomide. […] We also examined the dynamics of CAR re-synthesis after washout of lenalidomide.
Normalized CAR expression was calculated via subtraction of the MFI of unstained cells and normalization to the signal intensity of vehicle control-treated cells. […] Luciferase-tagged CAR luminescence was measured with an EnVision plate reader (PerkinElmer).

[5] = 25 mg per day dosing; multiple myeloma patients; cited from earlier work
[6] = test system: Jurkat cells expressing 19BBz-FLuc-d91.3 in NSG mice; assay: In vivo CAR depletion model (bioluminescent imaging of luciferase-tagged CAR)
Description: as §1
As expected, after exposure to lenalidomide, we observed a dose-dependent decrease in luminescence from Jurkat cells expressing degradable but not control luciferase-tagged CARs (FIG. 14A). Applicants then transplanted NSG mice with the engineered T cells. After establishing detectable engraftment by luminescence imaging, we administered a single 10 mg/kg oral pomalidomide dose the following day, and measured luminescence. […]

[7] = test system: NALM6 cells engrafted in NSG mice; assay: In vivo CAR T cell cytokine release model; conditions: day 5
From the text: To evaluate whether degradable CAR T cell cytokine release could be controlled in vivo, a high-level tumor engraftment model was used to provoke CAR T cell cytokine release. NALM6 cells were engrafted in non-obese diabetic scid gamma (NSG) mice one week before injection of conventional 19BBz CAR T cells, degradable 19BBz-d91.3 CAR T cells, or untransduced control T cells. On days 3-5 after T cell transfer, mice were either left untreated, treated daily, or treated twice daily with pomalidomide, which was used for in vivo experiments because it has a longer in vivo half-life than lenalidomide. On the afternoon of day 5, serum plasma concentrations were measured for a panel of human T cell cytokines (FIG. 14C). IFN-gamma levels were reduced four-fold (p=0.04) with daily and six-fold (p=0.01) with twice-daily pomalidomide treatment. […] Thus, pomalidomide can be used to limit cytokine release in vivo, the major driver of CAR T cell hyperactivation toxicities.

2FKBP (N+L) Cas9 = assay: dTAG-induced degradation of FKBP-Cas9 (eGFP disruption, western blotting, degradation kinetics); type: cell-based; conditions: multiple assays
Description: Degraders targeting variant Cas9 proteins is explored in the following example. SpCas9 variants were prepared and transfected into several cell lines.
Control of CRIPSR-Cas degradation can control editing outcomes.

Compound: 19BBz-d91.3: degradable anti-CD19 CAR (4-1BB, CD3z) with d91.3 super-degron tag (FNVLMVHKRSHTGERPLQCEICGFTCRQKGNLLRHIKLHTGEKPFKCHLCNYACQRRDAL; not fully specified; cysteine pairing not given here)
- inhibition of CD69 early activation marker expression (K562-CD19 cells; higher concentrations of lenalidomide, overnight co-culture with K562-CD19): more completely
- survival, tumor burden (BLI, spleen, bone marrow), T cell persistence versus conventional 19BBz CAR T cells [1]: no significant differences
- target cell killing (specific lysis) (NALM6 target cells [2]; 100 nM or 1000 nM lenalidomide, primary human CAR T cells, NALM6): not detected above background
- secretion of cytokines reflective of T cell activation (NALM6 target cells [3]; 100 nM lenalidomide, 9:1 CAR T:NALM6): reduced the secretion of all evaluated cytokines
- Half-maximal depletion of the degradable CAR after addition of lenalidomide ([4]; Jurkat cells): ~20 min
- Half-maximal recovery of expression after washout of lenalidomide ([4]; Jurkat cells): ~3.6 h
- fold lower lenalidomide concentration for depletion than endogenous IKZF3 ([4]; western blot, Jurkat cells): approximately 100 fold
- lenalidomide concentration for depletion as fraction of that required to deplete endogenous IKZF3 ([4]; western blot, Jurkat cells): approximately 1/100

Compound: Nc1cccc2c1CN(C1CCC(=O)NC1=O)C2=O (stereo not shown) [lenalidomide, reference compound]
- maximum plasma concentration [5]: 1.9 µM
- t½ of CAR depletion upon addition of lenalidomide ([4]; CAR-Jurkat cells, 95% CI 0.29-0.38): 19.8 min
- t½ of CAR re-expression following lenalidomide treatment and drug washout ([4]; CAR-Jurkat cells, 95% CI 1.88-13.6): 3.57 h

Compound: Nc1cccc2c1C(=O)N(C1CCC(=O)NC1=O)C2=O (stereo not shown) [pomalidomide]
- luminescence of degradable CAR after 24 hours ([6]; 24 hours after single 10 mg/kg oral pomalidomide dose): recovered to levels similar to that of the control CAR
- reduction of luminescence from the degradable CAR versus pre-treatment ([6]; six hours after single 10 mg/kg oral pomalidomide dose, p=0.003): 5 fold
- reduction of serum IFN-gamma levels ([7]; daily 30 mg/kg pomalidomide oral gavage days 3-5, p=0.04): four-fold
- reduction of serum IL-2 levels ([7]; daily pomalidomide, p=0.05): four-fold
- reduction of serum IFN-gamma levels ([7]; twice-daily 30 mg/kg pomalidomide oral gavage days 3-5, p=0.01): six-fold
- reduction of serum IL-2 levels ([7]; twice-daily pomalidomide, p=0.06): not significantly reduced

Compound: CC[C@H](C(=O)N1CCCC[C@H]1C(=O)O[C@H](CCc1ccc(OC)c(OC)c1)c1ccccc1OCC(=O)NCCCCCCCCNc1ccc2c(c1)C(=O)N(C1CCC(=O)NC1=O)C2=O)c1cc(OC)c(OC)c(OC)c1 (stereo partly shown) [dTAG]
- concentration sufficient for complete degradation of 2FKBP (N+L) Cas9 (2FKBP (N+L) Cas9): 1 µM

Compound: sCAR-91.3: lenalidomide ON-switch split CAR with dimerization domain from hybrid d913 zinc finger and CRBNΔ3 (FNVLMVHKRSHTGERPLQCEICGFTCRQKGNLLRHIKLHTGEKPFKCHLCNYACQRRDAL; cysteine pairing not given here; also: fragment of split CAR, other chain or arm left off)
- fold lower EC50 than sCAR IKZF3 (K562-CD19 cells; lenalidomide, Jurkat T cells exposed to CD19+ target cells): 7 fold
- EC50 (K562-CD19 cells; lenalidomide, split CAR-Jurkat cells co-cultured with K562-CD19, read-out: EC50 (percentage of CD69+ cells)): 29.3 nM
- killing of NALM6 target cells (NALM6 target cells [2]; 1000 nM lenalidomide, primary split CAR T cells sorted for components A, B): restricted to T cells expressing both halves of sCAR 91.3 in the presence of 1000 nM lenalidomide
- IL2 production in co-culture (NALM6 target cells [3]; split CAR primary T cells, NALM6, 1000 nM lenalidomide): required the complete sCAR 91.3 and lenalidomide
